{"source": "patent US20250295815A1", "about": "“PORPHYRIN-HYDROPORPHYRIN COMPOUNDS, COMPOSITIONS COMPRISING THE SAME AND METHODS OF USE THEREOF” (North Carolina State University, priority 2021, published 2025)", "format_in_all_cases": "physicochemical", "key": {"[1]": {"experiment": "Brightness of hydroporphyrin monomers vs. porphyrin-hydroporphyrin dyads at 405 nm excitation", "experimental": "Brightness was calculated using an excitation wavelength of 405 nm for a hydroporphyrin monomer having an emission wavelength of approximately 660, 680, 715, or 800 nm and for a fluorescent compound including a porphyrin and a hydroporphyrin structurally similar to the hydroporphyrin monomer. Brightness was calculated as the product of the molar absorption coefficient at 405 nm and the fluorescence quantum yield in toluene at room temperature. Table 3 provides the emission wavelength of the hydroporphyrin monomer and the corresponding dyad, the brightness of the hydroporphyrin monomer excited at 405 nm, the brightness of the dyad excited at 405 nm, and the fold change in brightness of the hydroporphyrin monomer compared to the brightness of the dyad."}, "[2]": {"experiment": "Dyad photophysical properties in toluene, excited at 405 nm", "parameters": "ext coeff (abs max B) / brightness (abs max): unit not given here", "experimental": "The photophysical properties of samples were tested in toluene at room temperature and excited at 405 nm."}, "[3]": {"experiment": "Fluorescence emission spectra in toluene (FIG. 5-8)", "details": "FIG. 8, 0.5 uM solutions in toluene; meso vs. beta linkage; in M⁻¹cm⁻¹", "experimental": "Emission spectra were collected in toluene at room temperature. […] P5-C3 contains a more rigid linker between chlorin and porphyrin than in P3-C1, which results in greater spatial separation of the two components and lower energy transfer.\nBrightness (molar absorption coefficient×fluorescence quantum yield): 84,700 (P3-C1), 13,900 (P5-C3).\nEmission spectra were collected using 0.5 uM solutions in toluene. Brightness (molar absorption coefficient×fluorescence quantum yield): 19,900 (P11-BC3 meso), 45,100 (P11-BC1 beta)."}}, "data": [{"smiles": "COc1c2nc(cc3ccc([nH]3)c(-c3ccc(-c4c5nc(cc6ccc(cc7nc(cc8ccc4[nH]8)C=C7)[nH]6)C=C5)cc3)c3nc(cc4ccc1[nH]4)C(C)(C)C3)C(C)(C)C2", "note": "[Dyad P11-BC3]", "values": [{"measurement": "fold change", "setting": "[1]; brightness of dyad vs. corresponding hydroporphyrin monomer, 405 nm", "value": 64.9}, {"measurement": "FWHM", "setting": "[1]; emission peak narrowness", "value": 15, "unit": "nm"}, {"measurement": "QY (x405)", "setting": "[1]; fluorescence quantum yield in toluene at room temperature", "value": 0.17}, {"measurement": "ext coeff (405 nm)", "setting": "[1]; molar absorption coefficient at 405 nm, in M-1 cm-1 (unit assumed)", "value": "118,100"}, {"measurement": "brightness (405 nm)", "setting": "[1]; product of molar absorption coefficient at 405 nm and fluorescence quantum yield, toluene, room temperature, in M⁻¹cm⁻¹", "value": "19,871"}, {"measurement": "abs max B", "setting": "[1]; toluene, room temperature", "value": 407, "unit": "nm"}, {"measurement": "em max", "setting": "[1]; toluene, room temperature", "value": 714, "unit": "nm"}, {"measurement": "ext coeff (405 nm)", "setting": "[2]; at 405 nm, room temperature, in M-1 cm-1 (unit assumed)", "value": "118,100"}, {"measurement": "FWHM", "setting": "[2]; emission peak, room temperature, excited at 405 nm", "value": 15, "unit": "nm"}, {"measurement": "QY (x405)", "setting": "[2]; fluorescence quantum yield, excited at 405 nm, room temperature", "value": 0.17}, {"measurement": "brightness (405 nm)", "setting": "[2]; molar absorption coefficient x fluorescence quantum yield, at 405 nm, in M⁻¹cm⁻¹", "value": "19,871"}, {"measurement": "brightness (abs max)", "setting": "[2]; molar absorption coefficient x fluorescence quantum yield, at abs max", "value": "20,998"}, {"measurement": "abs max B", "setting": "[2]; room temperature", "value": 407, "unit": "nm"}, {"measurement": "abs max Qx", "setting": "[2]; room temperature", "value": 511, "unit": "nm"}, {"measurement": "abs max Qy", "setting": "[2]; room temperature", "value": 714, "unit": "nm"}, {"measurement": "ext coeff (abs max B)", "setting": "[2]; room temperature", "value": "124,800"}, {"measurement": "em max", "setting": "[2]; room temperature, excited at 405 nm", "value": 714, "unit": "nm"}, {"measurement": "Brightness (molar absorption coefficient×fluorescence quantum yield)", "setting": "[3]", "value": "19,900"}]}]}
